Laboratory results: PubChem BioAssay AID816 (SRMLSC, 2007)
The source made the active and inactive calls. No rule for the calls is given here.

The molecules below were run on S. cerevisiae GAL1 promoter reporter activation counterscreen (assay: GAL1 promoter activators in yeast, artefact control for yeast lifespan extension project, S. cerevisiae (AID 816);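 also: yeast growth read after 24 h of incubation with compounds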).

Compound | EC50
O=C(c1ccc(F)cc1)C(CN1CCOCC1)c1ccccc1 (stereo not drawn) | > 40 µM (inactive)
O=c1c2c3c(sc2ncn1/N=C/c1ccc([N+](=O)[O-])o1)CCCC3 | > 40 µM (inactive)
COc1ccc(-c2noc(CSc3nnc(-c4ccncc4)n3-c3ccc(F)cc3)n2)cc1OC | > 40 µM (inactive)
COc1c(Br)cc(Br)cc1/C=N/n1c(C)nnc1C | > 40 µM (inactive)
CCc1[nH]nc2c1C(c1ccc(Br)s1)C(C#N)=C(N)O2 (stereo not drawn) | > 40 µM (inactive)
C=CCn1c(O)c(C(CC)=NCCN2CCOCC2)c(=O)[nH]c1=O | > 40 µM (inactive)
CC(=O)Oc1c(C(=O)c2nnc(C)o2)c(=O)n(C)c2ccccc12 | > 40 µM (inactive)
N#Cc1ccc(-c2ccc(OCC(=O)NCCc3ccccc3)cc2)cc1 | > 40 µM (inactive)
CCOc1ccc(C2=NNC(c3cccs3)=Nc3ccc(OCC)cc32)cc1 | > 40 µM (inactive)
CC(C)C(OC(=O)CN1C(=O)COc2ccccc21)C(=O)NC1CCCC1 (stereo not drawn) | > 40 µM (inactive)
Cc1cc(C(=O)CN2C(=O)NC(C)(CC(C)C)C2=O)c(C)n1-c1ccc2c(c1)OCO2 (stereo not drawn) | > 40 µM (inactive)
CN1C(=O)/C(=C/c2cccn2-c2ccc3ccccc3c2)C(=O)NC1=S | > 40 µM (inactive)
CC(=C1C(=O)c2ccccc2C1=O)N1CCN(c2ccccn2)CC1 | > 40 µM (inactive)
C=CCn1c(C)cc(C(=O)COc2ncnc3sccc23)c1C | > 40 µM (inactive)
CCCCn1c(NS(=O)(=O)c2ccc(C)cc2)c(C(=O)OCC)c2nc3ccccc3nc21 | > 40 µM (inactive)
CCOC(=O)c1[nH]nc(C(=O)c2ccc(Br)cc2)c1O | > 40 µM (inactive)
C/C=C/Cn1c(N2CCCCCC2)nc2c1c(=O)[nH]c(=O)n2C | > 40 µM (inactive)
O=C1CC(c2ccccc2)CC(O)=C1C=NCCN1CCN(C(=O)Nc2ccccc2)CC1 (stereo not drawn) | > 40 µM (inactive)
Oc1ccc2ccccc2c1C=Nc1ccc(N2CCOCC2)cc1 | > 40 µM (inactive)
CC1CCCCC1NC(=O)/C(C#N)=C/c1ccccc1F (stereo not drawn) | > 40 µM (inactive)
N=c1c2c(-c3ccccc3)c(-c3ccccc3)n(Cc3ccco3)c2ncn1CCCn1ccnc1 | > 40 µM (inactive)
CCOC(=O)c1cnc(-c2ccccc2)nc1Oc1ccc(Cl)cc1 | > 40 µM (inactive)
CC(=Nc1ccc2c(c1)nc(CO)n2C)C1=C(O)CC(C)(C)CC1=O | > 40 µM (inactive)
COCCCNC(CC(=O)Nc1ccc(OC)cc1OC)C(=O)O (stereo not drawn) | > 40 µM (inactive)
CN(Cc1c(O)ccc2c1oc(=O)c1ccccc12)C1CCCCC1 | > 40 µM (inactive)

Compound | EC50
CCn1c(/N=C/c2ccccc2NS(=O)(=O)c2ccc(C)cc2)nc2ccccc21 | > 40 µM (inactive)
CCCCC(=O)Nc1ccc(C(=O)NNC(=S)NC(=O)c2cccs2)cc1 | > 40 µM (inactive)
COCCOC(=O)/C(=C/c1ccc(OC(=O)c2ccccc2)cc1)C(C)=O | > 40 µM (inactive)
Nc1cccc2c1C(=O)N(C(=O)c1ccc(Cl)c(S(=O)(=O)N3CCCCCC3)c1)C2=O | > 40 µM (inactive)
O=C(CCC1CCCC1)c1c(O)c2ccccc2oc1=O | > 40 µM (inactive)
O=C1c2ccccc2NC(c2ccc(Cl)cc2Cl)N1O (stereo not drawn) | > 40 µM (inactive)
CN(C)c1ccc(S(=O)(=O)c2ccc(Cl)cc2)cc1 | > 40 µM (inactive)
COC(=O)C(=O)/C=C(\O)c1ccc(C)cc1 | > 40 µM (inactive)
CCC(=NCCc1c(C)[nH]c2ccc(C)cc12)C1=C(O)CC(c2ccccc2)CC1=O (stereo not drawn) | > 40 µM (inactive)
CN=C(SCc1cc2c(cc1Cl)OCO2)c1c(O)n(C)c(=O)n(C)c1=O | > 40 µM (inactive)
O=C(O)Cc1ccc(N=Cc2c(O)ccc3ccccc23)cc1 | > 40 µM (inactive)
Cc1cc(C)n(-c2ccc(OCC(=O)O)nn2)n1 | > 40 µM (inactive)
COc1ccc(C(=O)On2c(-c3ccc(Br)cc3)nc3ccccc3c2=O)cc1 | > 40 µM (inactive)
O=C(NC(=S)Nc1nc2c(s1)CSc1ccccc1-2)c1ccccc1 | > 40 µM (inactive)
O=c1c2ccccc2sn1-c1ccccc1 | > 40 µM (inactive)
CC(C)(C)OC(=O)[C@H]1[C@H](c2ccc([N+](=O)[O-])cc2)C2(C(=O)c3ccccc3C2=O)C2c3ccccc3C=NN21 (stereo partly drawn) | > 40 µM (inactive)
CCc1nnc(N2C(=O)c3ccc(Oc4ccc([N+](=O)[O-])cc4)cc3C2=O)s1 | > 40 µM (inactive)
CC(=O)Nc1nc(C)c(Oc2ccccc2)c(=O)[nH]1 | > 40 µM (inactive)
O=C(/C=C/c1ccccc1)C1C(=O)c2ccccc2C1=O | > 40 µM (inactive)
O=C1C=CC2C(c3ccc4c(c3)OCO4)CC1N2Cc1ccccc1 (stereo not drawn) | > 40 µM (inactive)
COC(=O)C1=C(C(=O)OC)SC(=C2C(=S)C(C)(C)N(C(=O)C(C)C)c3ccccc32)S1 | > 40 µM (inactive)
CC(=O)Oc1ccc(N(C(C)=O)S(=O)(=O)c2ccc(C)c([N+](=O)[O-])c2)cc1 | > 40 µM (inactive)
Cc1cc(N=Cc2c(O)ccc3ccccc23)no1 | > 40 µM (inactive)
COc1ccc(C(=O)C(CN2CCOCC2)c2ccccc2)cc1 (stereo not drawn) | > 40 µM (inactive)
COC(=O)c1cc(=O)n(-c2ccccc2)c(=Nc2ccccc2)s1 | > 40 µM (inactive)

Compound | EC50
CCOc1ccc(OCC(=O)c2c(O)c3ccccc3oc2=O)cc1 | > 40 µM (inactive)
COc1ccc(O)c(C(=O)c2cc(C#N)c(=O)n(CC3CCCO3)c2)c1 (stereo not drawn) | > 40 µM (inactive)
Cc1cc(C)c(NC(=O)/C(=C/c2ccccc2)c2ccccc2)c(C)c1 | > 40 µM (inactive)
CCCC(=O)Nc1ccc(C(=O)NNC(=S)NC(=O)c2cccs2)cc1 | > 40 µM (inactive)
NC(=S)N/N=C/c1coc2cc(Cl)ccc2c1=O | > 40 µM (inactive)
Fc1cccc2sc(Nc3nnc(-c4ccco4)o3)nc12 | > 40 µM (inactive)
O=C1C=CCC(/C=C/c2ccccc2)O1 (stereo not drawn) | > 40 µM (inactive)
O=[N+]([O-])c1cc(S(=O)(=O)N2CCCCCC2)ccc1F | > 40 µM (inactive)
Cc1cccc(OC(=O)n2c(=S)oc3cc(Cl)ccc32)c1 | > 40 µM (inactive)
Cc1ccc(C(=O)c2no[n+]([O-])c2C(=O)c2ccc(C)cc2)cc1 | > 40 µM (inactive)
Cc1ccc(OCC(=O)c2c(O)c3ccccc3oc2=O)cc1C | > 40 µM (inactive)
O=C(Oc1ccc2c(c1)OCO2)C12CC3CC(CC(C3)C1)C2 | > 40 µM (inactive)
CCOc1ccc(/C=C/C(=O)c2c(O)c3ccccc3oc2=O)cc1 | > 40 µM (inactive)
Cc1ccnc(-n2c(C)cc(/C=C3\C(=O)NC(=S)N(C)C3=O)c2C)c1 | > 40 µM (inactive)
Cc1ccc(N(C)C(=O)Oc2ccc(C(=O)c3ccc(Cl)cc3)cc2)cc1 | > 40 µM (inactive)
CCCC(=Nc1ccccc1)C1=C(O)C(C(=O)OC)C(C)(C)CC1=O (stereo not drawn) | > 40 µM (inactive)
CC(=O)C(C(C)=O)c1c(Cl)c(O)c(O)c2c(C(=O)c3ccccc3)coc12 | > 40 µM (inactive)
O=C1/C(=C/c2cccnc2)CCC/C1=C\c1cccnc1 | > 40 µM (inactive)
COc1ccc(CN2C(=O)/C(=C/c3ccncc3)SC2=S)cc1 | > 40 µM (inactive)
N#C/C(=C\c1ccccc1)C(=O)N(c1ccccn1)C1CCCCC1 | > 40 µM (inactive)
O=[N+]([O-])c1cc2oc3c(c2c(C=NCc2ccccc2)c1O)CCCC3 | > 40 µM (inactive)
CC(c1ccco1)N(C(=O)c1ccccc1NS(=O)(=O)c1cc([N+](=O)[O-])ccc1Cl)c1ccccn1 (stereo not drawn) | > 40 µM (inactive)
O=C1C(C2=C(O)c3ccccc3C2=O)=Nc2ccccc21 | > 40 µM (inactive)
C/C(=N\NC(=O)c1ccccc1O)C1C(=O)c2ccccc2C1=O | > 40 µM (inactive)
CCOc1ccc2nc(NCCNC(=O)Nc3ccccc3)c(C#N)cc2c1 | > 40 µM (inactive)

Compound | EC50
CC1(C)CC(=O)C(C(=O)Cc2ccccc2[N+](=O)[O-])C(=O)C1 | > 40 µM (inactive)
COc1cc(OC)cc(-c2nc3ccccc3c(=O)n2OC(=O)c2ccc(Br)cc2)c1 | > 40 µM (inactive)
CCc1oc2ccccc2c1C(=O)CCN1CCCCC1 | > 40 µM (inactive)
Oc1ccc(NCc2ccccc2OCc2ccccc2F)cc1 | > 40 µM (inactive)
C[C@]12CC[C@@H](O)C[C@@H]1CC[C@@H]1[C@@H]2CC[C@]2(C)[C@@H](O)CC[C@@H]12 | > 40 µM (inactive)
COc1cccc(C(=O)Oc2cc(N)n(S(=O)(=O)c3ccc(C)cc3)n2)c1OC | > 40 µM (inactive)
CCn1ccc(C(=O)Nc2ccc(S(=O)(=O)Nc3ccccc3OC)cc2)n1 | > 40 µM (inactive)
O=C(NCc1ccc(Cl)cc1)c1ccccc1CCc1ccccc1 | > 40 µM (inactive)
O=S(=O)(ON(c1ccccc1)S(=O)(=O)c1ccccc1)c1ccccc1 | > 40 µM (inactive)
COc1ccc(C(C)NC(=O)c2ccccc2)cc1 (stereo not drawn) | > 40 µM (inactive)
COc1cccc(C2CC3C(=O)C=CC2N3Cc2ccccc2)c1 (stereo not drawn) | > 40 µM (inactive)
O=C1c2ccccc2C(Nc2ccc3c(c2)OCCO3)N1c1ccccn1 (stereo not drawn) | > 40 µM (inactive)
C=C(C)CN(CC)C(=O)COc1ccc(S(=O)(=O)Nc2ccc(OC)cc2)cc1 | > 40 µM (inactive)
CCOC(=O)/C(=C/c1ccc(OC(=O)c2ccccc2)cc1)C(C)=O | > 40 µM (inactive)
CC(C)(C)C(=O)/C(=C/c1cccc([N+](=O)[O-])c1)n1cncn1 | > 40 µM (inactive)
COc1ccc(CNC(=O)C2CCN(c3nc(OC)nc(OC)n3)CC2)cc1 | > 40 µM (inactive)
CC(=O)Nc1ccc(C(=O)CSc2nnc(-c3ccc(O)cc3)n2CC2CCCO2)cc1 (stereo not drawn) | > 40 µM (inactive)
CCCCN(CCCC)c1ccc(C(=O)c2ccccc2C(=O)O)c(O)c1 | > 40 µM (inactive)
O=C(/C(=C/O)N=Nc1ccc(Cl)cc1)c1ccncc1 | > 40 µM (inactive)
O=C(NCc1ccco1)c1cc(C(=O)C2CCCCC2)c[nH]1 | > 40 µM (inactive)
C=C(C(=O)c1ccccc1)C(CC(=O)c1ccccc1)c1ccccc1 (stereo not drawn) | > 40 µM (inactive)
CCN1C(=O)C(=Cc2ccc(C)s2)C(=O)N(CC)C1=S | > 40 µM (inactive)
CN(C)CC(C(=O)c1ccccc1)c1ccccc1 (stereo not drawn) | > 40 µM (inactive)
